Laboratory results taken from patent US20220401414A1, “TREATMENT AND PREVENTION OF A NEURODEGENERATIVE DISORDER” (Inflazome Limited, priority 2019, published 2022).

Test system: 6-OHDA mouse model of Parkinson's disease
Assay: Studies C and D: amphetamine-induced ipsilateral rotations in the 6-OHDA mouse model
Type: in vivo, C57BL6 mice
Settings: Study D, 3 mg/kg oral daily, day 21 after 6-OHDA (12 μg)
Method: To determine the oral efficacy of the compound of formula (I) in the 6-OHDA mouse model of Parkinson's disease.
8-week-old C57BL6 male mice (obtained from ARC, Perth, Australia) were housed under a 12-h light cycle in a SPF climate-controlled facility with food and water provided ad libitum for two weeks prior to study initiation. For treatment with the compound of formula (I), mice were dosed via oral gavage. Ten (10) mice in each group were dosed at 3 or 1 mg/kg, starting the day before (24 hr prior) stereotaxic surgery, and then QD until sacrifice.
6-OHDA (Sigma) was prepared immediately prior to surgeries. A sterile saline (0.9%) solution containing ascorbic acid (0.2%) was used as the vehicle to dissolve 6-OHDA. […] In order to inject a final concentration of 12 μg into the right striatum, a working stock of 6 mg/ml was made injecting a final volume of 2 μl.
Mice were anaesthetized using ketamine (100 mg/kg, i.p.) and xylazine (10 mg/kg i.p.)
anesthesia and were placed into a stereotactic frame with nose and ear bars specially adapted for mice. The lesion was performed using a 5 μl Hamilton syringe to deliver either vehicle or 6-OHDA (12 μg) at the following coordinates relative to bregma: AP: −1.2 mm; ML: −1.7 mm; DV: 3.5 mm into the right dorsal striatum according to the stereotaxic atlas (“The mouse brain in stereotaxic coordinates” by Paxinos and Franklin, 1997). After drilling a 1 mm burr-hole in the skull, a 2 μl volume of solution was infused at the target site at the rate of 0.5 μl per minute. The needle was held in place for at least 5 minutes after injection to minimize retrograde flow along the needle tract. Mice were administered a subcutaneous injection of sterile Ringer's solution to is facilitate recovery and were placed on a heat-pad until complete recovery from anesthesia.
Amphetamine-induced ipsilateral rotations were performed at day 21 post-surgery. Mice were injected with 2 mg/kg of D-amphetamine and placed in circular glass bowls.
After an acclimatization period of five minutes, the net ipsilateral rotations over ten minutes were recorded and counted. Quantitation was performed from recorded videos by an investigator blinded to the treatment groups.
The aim of study D was to compare the neuroprotective efficacy of the compound of formula (I) with MCC95o in the mouse unilateral 6-OHDA model at 3 mg/kg. The amphetamine-induced ipsilateral rotations and striatal dopamine (DA) levels were assessed, using a protocol identical to that used for study C, with ten (10) mice in each group being dosed at 3 mg/kg for each drug, starting the day before (24 hr prior) stereotaxic surgery, and then daily throughout until sacrifice.

CC(C)(O)c1coc(S(=O)(=O)NC(=O)Nc2c3c(cc4c2CCC4)CCC3)c1 [MCC950, reference compound]
reduction in amphetamine-induced rotations relative to the 6-OHDA untreated group: 55%
